The subject of this assay is Myotonic Dystrophy 1 affected patient fibroblasts (Coriel GM04602; 1600 CTG repeats). The experiment in a line: DM1 foci reduction assay (EC50 assay; CAG10-Cy3 FISH, foci per nucleus). Particulars: Homo sapiens, Fibroblast; DM1 patient fibroblasts, 48 h treatment, foci per nucleus; read-out: DM1 EC50, 48 h. Format: cell-based. On the procedure:
DM1 Foci Reduction Assay Methods
Myotonic Dystrophy 1 affected patient fibroblasts (Coriel GM04602; 1600 CTG repeats) and wild type fibroblasts (Coriell GM07492; control line) were cultured separately in Gibco DMEM (1×)+4.5 g/L D-Glucose+L-Glutamine+[…] Sodium Pyruvate, supplemented with 10% FBS and 1× Pen/Strep. Cells were maintained in an incubator at 37° C. and 5% CO2 with media refreshed every 48-72 hours.
At 90-95% confluency, both cell lines were harvested using Trypl-E then pelleted at 500×g for 5 minutes and were resuspended in fresh media. DM1 fibroblasts were seeded in Agilent 96 well black plates at a density of 5,000 cells/well in 200 μL media; and 8 wells were reserved for control fibroblasts. Plates were returned to incubator for 24 hours at 37° C. and 5% CO2.
Compounds were diluted from 10 mM stock to 1 mM in DMSO and then diluted once more to 6 μM (2× concentration) in media. Media was removed from all plates and cells were replenished with 100 μL media. Cells were treated in 8-point dose response, 1:3 fold dilution, 3 μM top dose via addition of 100 μL of 6 μM (2× concentration) compound to the 100 μL media with cells. Plates were returned to incubator for 48 hours at 37° C. and 5% CO2.
Following treatment, compounds were removed, and plates were washed with PBS, then cells were fixed in 75 μL 4% PFA solution for 20 minutes at room temperature. Plates were washed twice with PBS and twice with cold 70% ethanol before permeabilization with 250 μL cold 70% ethanol for 24-72 hours at −20° C.
After permeabilization, plates were washed once with a 30% formamide and 2×SSC buffer and rehydrated in that buffer for 15 minutes at room temperature. Cells were incubated overnight at 37° C. in 75 μL of a hybridization solution containing 30% formamide, 2×SSC, 25 mg/mL dextran sulfate, 2.5 mg/mL BSA, 0.2 μg/mL Herring sperm DNA, 2 mM vanadyl-ribonucleoside complex, and 5 nM CAG10-Cy3 probe.
Plates were washed once with 30% formamide in 2×SSC buffer, then twice with the buffer for 30 minutes at 37° C., 300 RPM in an incubating plate shaker. Cells were stained with 75 μL of 2.5 μg/mL DAPI in PBS for 5 minutes at room temperature. Plates were then washed twice with PBS and stored in 250 μL PBS. Plates were sealed with adhesive foil and wiped down with 70% ethanol.
Cells were imaged on a Cytation5 with a 20× objective sampling from 4 areas of each well. Nuclei were captured under DAPI channel and foci under RFP channel. Plates were analyzed on an average foci per nucleus per well basis.
As for `Cn1cc(NC(=O)c2nc(NC(=O)CCNC(=O)c3cc(NC(=O)c4nccn4C)cn3C)cn2C)cc1C(=O)NCCCC(=O)Nc1cn(C)c(C(=O)NCCC(=O)Nc2cc(C(=O)Nc3cn(C)c(C(=O)NCCC(=O)NCCOCCN4CCN(C5CCN(c6ccc(N)cc6)CC5)CC4)n3)n(C)c2)n1` [Compound B-155], the EC50 is greater than 1000 nM.
To `Cn1cc(NC(=O)c2nc(NC(=O)CCNC(=O)c3cc(NC(=O)c4nccn4C)cn3C)cn2C)cc1C(=O)NCCCC(=O)Nc1cn(C)c(C(=O)NCCC(=O)Nc2cc(C(=O)Nc3cn(C)c(C(=O)NCCC(=O)N4CCN(C5CCN(c6ccc(N)cc6)CC5)CC4)n3)n(C)c2)n1` [Compound B-156] belongs greater than 1000 nM; to `CCCNC(=O)CCNC(=O)c1nc(NC(=O)c2cc(NC(=O)CCNC(=O)c3nc(NC(=O)CCCNC(=O)c4cc(NC(=O)c5nc(NC(=O)CCNC(=O)c6cc(NC(=O)c7nccn7C)cn6C)cn5C)cn4C)cn3C)cn2CCCCCN(CCOCCOCCOCCOC)CCOCCOCCOCCOC)cn1C` [Compound B-157], greater than 1000 nM; to `CCCNC(=O)CCNC(=O)c1nc(NC(=O)c2cc(NC(=O)CCNC(=O)c3nc(NC(=O)CCCNC(=O)c4cc(NC(=O)c5nc(NC(=O)CCNC(=O)c6cc(NC(=O)c7nccn7C)cn6C)cn5C)cn4C)cn3C)cn2CCCCC(=O)N(CCOCCOCCOCCOC)CCOCCOCCOCCOC)cn1C` [Compound B-159], greater than 1000 nM.
As for `COCCOCCOCCOCCN(CCOCCOCCOCCOC)C(=O)CCCCn1cc(NC(=O)CCNC(=O)c2nc(NC(=O)CCCNC(=O)c3cc(NC(=O)c4nc(NC(=O)CCNC(=O)c5cc(NC(=O)c6nccn6C)cn5C)cn4C)cn3C)cn2C)cc1C(=O)Nc1cn(C)c(C(=O)NCCC(=O)N2CCC(N3CCNCC3)CC2)n1` [Compound B-160], the EC50 was greater than 1000 nM.
In the case of `COCCOCCOCCOCCN(CCCCCn1cc(NC(=O)c2nc(NC(=O)CCNC(=O)c3cc(NC(=O)c4nccn4C)cn3C)cn2C)cc1C(=O)NCCCC(=O)Nc1cn(C)c(C(=O)NCCC(=O)Nc2cc(C(=O)Nc3cn(C)c(C(=O)NCCC(=O)N4CCC(N5CCNCC5)CC4)n3)n(C)c2)n1)CCOCCOCCOCCOC` [Compound B-162], the EC50 was greater than 1000 nM.
To `Cn1cc(NC(=O)c2nc(NC(=O)CCNC(=O)c3cc(NC(=O)c4nccn4C)cn3C)cn2C)cc1C(=O)NCCCC(=O)Nc1cn(C)c(C(=O)NCCC(=O)Nc2cc(C(=O)Nc3cn(C)c(C(=O)NCCC(=O)NCCOCCOCCOCCN4CCC(C#CC#CC5CCN(Cc6ccc(C(C)(C)C)cc6)CC5)CC4)n3)n(C)c2)n1` [Compound B-176] belongs greater than 1000 nM; to `Cn1cc(NC(=O)c2nc(NC(=O)CCNC(=O)c3cc(NC(=O)c4nccn4C)cn3C)cn2C)cc1C(=O)NCCCC(=O)Nc1cn(C)c(C(=O)NCCC(=O)Nc2cc(C(=O)Nc3cn(C)c(C(=O)NCCC(=O)NCCCCCN4CCC(C#CC#CC5CCN(Cc6ccc(C(C)(C)C)cc6)CC5)CC4)n3)n(C)c2)n1` [Compound B-178], greater than 1000 nM; to `Cn1cc(NC(=O)c2nc(NC(=O)CCNC(=O)c3cc(NC(=O)c4nccn4C)cn3C)cn2C)cc1C(=O)NCCCC(=O)Nc1cn(C)c(C(=O)NCCC(=O)Nc2cc(C(=O)Nc3cn(C)c(C(=O)NCCC(=O)Nc4ccc(C(C)(C)C)cc4)n3)n(C)c2)n1` [Compound B-180], greater than 1000 nM.
As to `Cn1cc(NC(=O)c2nc(NC(=O)CCNC(=O)c3cc(NC(=O)c4nccn4C)cn3C)cn2C)cc1C(=O)NCCCC(=O)Nc1cn(C)c(C(=O)NCCC(=O)Nc2cc(C(=O)Nc3cn(C)c(C(=O)NCCC(=O)NCCNc4ccc(C(C)(C)C)cc4)n3)n(C)c2)n1` [Compound B-181], the EC50 is greater than 1000 nM.
In the case of `CCCCCC(=O)N1CCC(C#CC#CC2CCN(CCCCCNC(=O)CCNC(=O)c3nc(NC(=O)c4cc(NC(=O)CCNC(=O)c5nc(NC(=O)CCCNC(=O)c6cc(NC(=O)c7nc(NC(=O)CCNC(=O)c8cc(NC(=O)c9nccn9C)cn8C)cn7C)cn6C)cn5C)cn4C)cn3C)CC2)CC1` [Compound B-182] it was 500 to 1000 nM; in that of `CCCCCCN1CCC(C#CC#CC2CCN(CCCCCNC(=O)CCNC(=O)c3nc(NC(=O)c4cc(NC(=O)CCNC(=O)c5nc(NC(=O)CCCNC(=O)c6cc(NC(=O)c7nc(NC(=O)CCNC(=O)c8cc(NC(=O)c9nccn9C)cn8C)cn7C)cn6C)cn5C)cn4C)cn3C)CC2)CC1` [Compound B-183], greater than 1000 nM; in that of `CC(C)CCC(=O)N1CCC(C#CC#CC2CCN(CCCCCNC(=O)CCNC(=O)c3nc(NC(=O)c4cc(NC(=O)CCNC(=O)c5nc(NC(=O)CCCNC(=O)c6cc(NC(=O)c7nc(NC(=O)CCNC(=O)c8cc(NC(=O)c9nccn9C)cn8C)cn7C)cn6C)cn5C)cn4C)cn3C)CC2)CC1` [Compound B-184], greater than 1000 nM.
In the case of `Cn1cc(NC(=O)c2nc(NC(=O)CCNC(=O)c3cc(NC(=O)c4nccn4C)cn3C)cn2C)cc1C(=O)NCCCC(=O)Nc1cn(C)c(C(=O)NCCC(=O)Nc2cc(C(=O)Nc3cn(C)c(C(=O)NCCC(=O)NCC#CC#CC4CCN(C(=O)c5ccc(C(C)(C)C)cc5)CC4)n3)n(C)c2)n1` [Compound B-188] it was greater than 1000 nM; in that of `Cn1cc(NC(=O)c2nc(NC(=O)CCNC(=O)c3cc(NC(=O)c4nccn4C)cn3C)cn2C)cc1C(=O)NCCCC(=O)Nc1cn(C)c(C(=O)NCCC(=O)Nc2cc(C(=O)Nc3cn(C)c(C(=O)NCCC(=O)NCC#CC#CC4CCN(Cc5ccc(C(C)(C)C)cc5)CC4)n3)n(C)c2)n1` [Compound B-189], greater than 1000 nM.
For `CC(C)CCC(=O)N1CCC(C#CC#CCNC(=O)CCNC(=O)c2nc(NC(=O)c3cc(NC(=O)CCNC(=O)c4nc(NC(=O)CCCNC(=O)c5cc(NC(=O)c6nc(NC(=O)CCNC(=O)c7cc(NC(=O)c8nccn8C)cn7C)cn6C)cn5C)cn4C)cn3C)cn2C)CC1` [Compound B-190], the EC50 was greater than 1000 nM.
In the case of `CC(C)CCCN1CCC(C#CC#CCNC(=O)CCNC(=O)c2nc(NC(=O)c3cc(NC(=O)CCNC(=O)c4nc(NC(=O)CCCNC(=O)c5cc(NC(=O)c6nc(NC(=O)CCNC(=O)c7cc(NC(=O)c8nccn8C)cn7C)cn6C)cn5C)cn4C)cn3C)cn2C)CC1` [Compound B-191] it was 100 to 500 nM; in that of `Cn1cc(NC(=O)c2nc(NC(=O)CCNC(=O)c3cc(NC(=O)c4nccn4C)cn3C)cn2C)cc1C(=O)NCCCC(=O)Nc1cn(C)c(C(=O)NCCC(=O)Nc2cc(C(=O)Nc3cn(C)c(C(=O)NCCC(=O)NCC#CC#CC4CCN(C(=O)OC(C)(C)C)CC4)n3)n(C)c2)n1` [Compound B-194], greater than 1000 nM; in that of `Cn1cc(NC(=O)c2nc(NC(=O)CCNC(=O)c3cc(NC(=O)c4nccn4C)cn3C)cn2C)cc1C(=O)NCCCC(=O)Nc1cn(C)c(C(=O)NCCC(=O)Nc2cc(C(=O)Nc3cn(C)c(C(=O)NCCC(=O)N4CCC(O)(C#CC5CCN(C(=O)OC(C)(C)C)CC5)CC4)n3)n(C)c2)n1` [Compound B-195], greater than 1000 nM.
As for `Cn1cc(NC(=O)c2nc(NC(=O)CCNC(=O)c3cc(NC(=O)c4nccn4C)cn3C)cn2C)cc1C(=O)NCCCC(=O)Nc1cn(C)c(C(=O)NCCC(=O)Nc2cc(C(=O)Nc3cn(C)c(C(=O)NCCC(=O)N4CCC(O)(C#CC5CCNCC5)CC4)n3)n(C)c2)n1` [Compound B-196], the EC50 was greater than 1000 nM.
Take `Cn1cc(NC(=O)c2nc(NC(=O)CCNC(=O)c3cc(NC(=O)c4nccn4C)cn3C)cn2C)cc1C(=O)NCCCC(=O)Nc1cn(C)c(C(=O)NCCC(=O)Nc2cc(C(=O)Nc3cn(C)c(C(=O)NCCC(=O)N4CCC(C#CC5(O)CCN(C(=O)OCC6c7ccccc7-c7ccccc76)CC5)CC4)n3)n(C)c2)n1` [Compound B-197]: the EC50 fell in the range of 500 to 1000 nM.
Take `Cn1cc(NC(=O)c2nc(NC(=O)CCNC(=O)c3cc(NC(=O)c4nccn4C)cn3C)cn2C)cc1C(=O)NCCCC(=O)Nc1cn(C)c(C(=O)NCCC(=O)Nc2cc(C(=O)Nc3cn(C)c(C(=O)NCCC(=O)N4CCC(C#CC5(O)CCNCC5)CC4)n3)n(C)c2)n1` [Compound B-198]: the EC50 fell in the range of 500 to 1000 nM.
To `Cn1cc(NC(=O)c2nc(NC(=O)CCNC(=O)c3cc(NC(=O)c4nccn4C)cn3C)cn2C)cc1C(=O)NCCCC(=O)Nc1cn(C)c(C(=O)NCCC(=O)Nc2cc(C(=O)Nc3cn(C)c(C(=O)NCCOCCOCCOCCN4CCC(C#CC#CC5CCN(C(=O)OC(C)(C)C)CC5)CC4)n3)n(C)c2)n1` [Compound B-199] belongs 100 to 500 nM.
In the case of `Cn1cc(NC(=O)c2nc(NC(=O)CCNC(=O)c3cc(NC(=O)c4nccn4C)cn3C)cn2C)cc1C(=O)NCCCC(=O)Nc1cn(C)c(C(=O)NCCC(=O)Nc2cc(C(=O)Nc3cn(C)c(C(=O)N4CC(c5cnc(CNC(=O)OCc6ccccc6)[nH]5)C4)n3)n(C)c2)n1` [Compound B-201] it was greater than 1000 nM; in that of `COCCOCCOCCOCCOCCOCCNC(=O)c1nc(NC(=O)c2cc(NC(=O)CCNC(=O)c3nc(NC(=O)CCCNC(=O)c4cc(NC(=O)c5nc(NC(=O)CCNC(=O)c6cc(NC(=O)c7nccn7C)cn6C)cn5C)cn4C)cn3C)cn2C)cn1C` [Compound B-204], 500 to 1000 nM.

As a reminder, the EC50 is the concentration needed to bring the measured effect to its halfway point.

The values are drawn from patent US20250368628A1, “METHODS AND COMPOUNDS FOR MODULATING INHERITED GENETIC DISEASES” (Design Therapeutics, Inc., priority 2022, published 2025).
